Results: patent US20190256929A1, “PHARMACODYNAMIC BIOMARKERS FOR PERSONALIZED CANCER CARE USING EPIGENETIC MODIFYING AGENTS” (ORYZON GENOMICS, S.A., priority 2016, published 2019)

How the values were obtained:
SCLC 510A xenografts = assay: RNA-seq PD gene change in H510A SCLC xenograft mouse model; assay type: in vivo, mice; settings: for ASCL1 Log2FC / GRP Log2FC / NOTCH1 Log2FC: vs vehicle
Procedure: Female athymic nude mice, approximately 7-8-week old animals, were injected with 5 million H510A cells per 50 μL PBS and 50 μL Matrigel (BD Bioscience) into the right flank of each animal. After tumor growth reached 200-300 mm3, animals were distributed in three homogeneous groups with similar mean tumor volume and SD. Animals were treated with vehicle, 20 μg/Kg and 40 μg/Kg of (trans)-N1-((1R,2S)-2-phenylcyclopropyl)cyclohexane-1,4-diamine for 3 weeks according to the 5 days on/2 days off schedule.
Mice were sacrificed at day 35 at 1, 6 and 24 hours post last injection. Blood was extracted in Microvette® (Sarstedt) tubes, centrifuged on a bench-top centrifuge at 2000 rpm for 15 min at 4 C. Supernatant was stored at −80° C. Tumors were removed and divided in 3 parts: ⅓ was immersed in RNA-Later and snap frozen for subsequent analysis. Frozen material was stored at −80° C. before shipment.
Whole transcriptomic RNA sequencing procedure is identical to that as described in Example 1. Raw RNASeq reads were aligned to the mouse and the human transcriptome using GSNAP and were then analyzed. Reads mapped to both organisms were filtered out and only reads that were uniquely aligned to human or mouse were used to profile the respective genes. The log 2 fold change of three candidate PD markers between (trans)-N1-((1R,2S)-2-phenylcyclopropyl)cyclohexane-1,4-diamine treated and vehicle treated samples were calculated using DESeq2 package (Love et al.).

PDX model FHSC04 = assay: RNA-seq PD gene change in SCLC PDX model FHSC04 treated in vivo; set-up: species or system mice; settings: 400 μg/kg oral gavage
Procedure: To confirm the results obtained for small cell lung cancer cell line xenograft, changes in PD markers Notch1, ASCL1 and GRP were evaluated in PDX model FHSC04 treated in vivo with LSD1i (trans)-N1-((1R,2S)-2-phenylcyclopropyl)cyclohexane-1,4-diamine (FIG. 13). Eight to twelve-week-old NOD scid gamma mice were implanted with 1.0×10^6 disaggregated cells from PDX model FHSC04 in 100 μl of 1:1 HITES media:Matrigel. […] Once tumor volume reached 150-200 mm^3, mice were randomly assigned to treatment groups for 21-35 days, depending on the kinetics of growth in the given model. Animals were treated with saline or with 400 μg/kg ((trans)-N1-((1R,2S)-2-phenylcyclopropyl)cyclohexane-1,4-diamine, delivered by oral gavage once every 7 days, dissolved to 10 ml/kg with 0.9% saline solution. For the 10-day treatment in FHSC04 used for molecular analyses, an additional dose of 400 μg/kg (trans)-N1-((1R,2S)-2-phenylcyclopropyl)cyclohexane-1,4-diamine was given 4 hours before tissue collection.
For RNA-seq analyses using PDX samples in vivo, the Ultra RNA Library Prep Kit for Illumina (New England BioLabs; catalog E753L) was used to generate libraries from total RNA. All library preparation was conducted according to the manufacturer's instructions. Single-end sequencing (50 bp) was performed using an Illumina HiSeq 2500, reads of low quality were filtered prior to alignment to the hg19 genome build using TopHat v2.0.12 (Trapnell et al. Bioinformatics 2009 May 1; 25(9): 1105-1111). In vivo PDX samples were also aligned to mm9, where the mouse and human alignments from a given sample were compared, discarding from downstream analysis those reads which had fewer mismatches to mouse, relative to human. Cuffdiff v2.1.1 (Trapnell et al. Nat Biotechnol. 2013 January; 31(1):46-53) was used to generate fragment per kilobase per million (FPKM) expression values. Counts (CPM) were generated from TopHat alignments using the Python package HTSeq v0.6.1 (Anders et al. Bioinformatics. 2015 Jan. 15; 31(2): 166-169) using the “intersection-strict” overlap mode. […]

[1] = 20 μg/kg, 1 h post last injection
[2] = 20 μg/kg, 6 h post last injection
[3] = 20 μg/kg, 24 h post last injection
[4] = 40 μg/kg, 1 h post last injection
[5] = 40 μg/kg, 6 h post last injection
[6] = 40 μg/kg, 24 h post last injection

Compound: N[C@H]1CC[C@H](N[C@@H]2C[C@H]2c2ccccc2)CC1 [RG6016, (trans)-N1-((1R,2S)-2-phenylcyclopropyl)cyclohexane-1,4-diamine]
- ASCL1 Log2FC (SCLC 510A xenografts; [1]): −0.525
- GRP Log2FC (SCLC 510A xenografts; [1]): −1.607
- NOTCH1 Log2FC (SCLC 510A xenografts; [1]): 1.947
- ASCL1 Log2FC (SCLC 510A xenografts; [2]): −0.545
- GRP Log2FC (SCLC 510A xenografts; [2]): −0.794
- NOTCH1 Log2FC (SCLC 510A xenografts; [2]): 1.388
- ASCL1 Log2FC (SCLC 510A xenografts; [3]): −0.472
- GRP Log2FC (SCLC 510A xenografts; [3]): −1.205
- NOTCH1 Log2FC (SCLC 510A xenografts; [3]): 1.679
- ASCL1 Log2FC (SCLC 510A xenografts; [4]): −0.783
- GRP Log2FC (SCLC 510A xenografts; [4]): −1.75
- NOTCH1 Log2FC (SCLC 510A xenografts; [4]): 2.727
- ASCL1 Log2FC (SCLC 510A xenografts; [5]): −0.825
- GRP Log2FC (SCLC 510A xenografts; [5]): −1.421
- NOTCH1 Log2FC (SCLC 510A xenografts; [5]): 2.321
- ASCL1 Log2FC (SCLC 510A xenografts; [6]): −1.286
- GRP Log2FC (SCLC 510A xenografts; [6]): −2.742
- NOTCH1 Log2FC (SCLC 510A xenografts; [6]): 3.423
- ASCL1 transcript down regulation (FIG. 9) (SCLC 510A xenografts; SCLC 510A xenografts): dose and time dependent
- GRP transcript down regulation (FIG. 10) (SCLC 510A xenografts; SCLC 510A xenografts): dose and time dependent
- NOTCH1 transcript up regulation (FIG. 11) (SCLC 510A xenografts; SCLC 510A xenografts): dose and time dependent
- ASCL1 transcript regulation (FIG. 13) (PDX model FHSC04): down regulation
- GRP transcript regulation (FIG. 13) (PDX model FHSC04): down regulation
- NOTCH1 transcript regulation (FIG. 13) (PDX model FHSC04): up regulation
